Measurements: ChEMBL document CHEMBL1201862, “PubChem BioAssay data set” (2004)
Calls of active or inactive are those of the source.

Key:
[1] = biological target: Neuropeptides B/W receptor type 1 (Homo sapiens, UniProt P48145); assay: Fluorescence-based dose response cell-based high throughput screening assay to identify antagonists of the G-protein coupled receptor 7 (GPR7). [Related pubchem assays: 1952 (Screening assay (GPR7 antagonists).), 1880 (Summary AID.)]; assay type: functional
[2] = biological target: T1, Neuropeptide Y receptor type 2 (Homo sapiens, UniProt P49146); assay: IC50 for human NPY-Y2 blockade – cell-based, counter-screen for NPY-Y1 antagonist project, dose response (AID 1278); assay type: functional
T1 sequence (P49146 whole entry): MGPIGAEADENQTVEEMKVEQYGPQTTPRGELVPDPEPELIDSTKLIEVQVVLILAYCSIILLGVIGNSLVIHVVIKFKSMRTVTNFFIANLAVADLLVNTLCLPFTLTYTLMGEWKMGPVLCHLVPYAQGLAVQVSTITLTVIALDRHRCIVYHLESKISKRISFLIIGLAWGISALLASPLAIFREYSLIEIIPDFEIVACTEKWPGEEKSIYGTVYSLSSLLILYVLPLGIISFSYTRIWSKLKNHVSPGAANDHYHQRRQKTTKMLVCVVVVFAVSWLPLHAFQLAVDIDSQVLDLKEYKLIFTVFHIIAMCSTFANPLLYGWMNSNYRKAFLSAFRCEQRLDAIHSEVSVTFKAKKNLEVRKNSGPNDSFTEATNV

[3] = biological target: Melanin-concentrating hormone receptor 1 (Homo sapiens, UniProt Q99705); assay: Fluorescence-based counterscreen for antagonists of the G-protein coupled receptor 7 (GPR7): cell-based high throughput dose response assay to identify antagonists of the melanin-concentrating hormone receptor 1 (MCHR1).; assay type: functional
Melanin-concentrating hormone receptor 1, sequence (Q99705 whole entry): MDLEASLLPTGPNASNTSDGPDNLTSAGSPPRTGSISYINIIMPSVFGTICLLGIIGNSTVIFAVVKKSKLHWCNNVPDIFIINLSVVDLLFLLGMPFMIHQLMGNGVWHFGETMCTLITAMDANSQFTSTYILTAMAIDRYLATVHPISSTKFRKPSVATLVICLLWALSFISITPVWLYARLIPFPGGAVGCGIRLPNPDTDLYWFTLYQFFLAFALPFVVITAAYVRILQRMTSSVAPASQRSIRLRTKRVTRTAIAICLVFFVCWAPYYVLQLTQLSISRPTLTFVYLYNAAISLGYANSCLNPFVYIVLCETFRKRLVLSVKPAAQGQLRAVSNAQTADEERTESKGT

[4] = biological target: T2, Neuropeptide Y receptor type 1 (Homo sapiens, UniProt P25929); assay: IC50 of human NPY-Y1 blockers – cell-based, dose response (AID 1277); assay type: functional
T2 sequence (P25929 whole entry): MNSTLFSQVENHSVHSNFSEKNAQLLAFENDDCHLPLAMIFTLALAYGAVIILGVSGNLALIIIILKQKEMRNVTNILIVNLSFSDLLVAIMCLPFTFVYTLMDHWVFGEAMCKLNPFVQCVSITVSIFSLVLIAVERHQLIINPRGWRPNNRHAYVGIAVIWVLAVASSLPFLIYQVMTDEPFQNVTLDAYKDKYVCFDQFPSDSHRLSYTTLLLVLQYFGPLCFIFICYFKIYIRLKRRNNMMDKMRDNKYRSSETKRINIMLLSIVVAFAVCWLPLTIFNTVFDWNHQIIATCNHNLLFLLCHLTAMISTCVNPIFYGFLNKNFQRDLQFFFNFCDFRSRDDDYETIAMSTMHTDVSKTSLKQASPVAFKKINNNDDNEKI

[5] = biological target: Glyceraldehyde-3-phosphate dehydrogenase (Homo sapiens, UniProt P04406)
Glyceraldehyde-3-phosphate dehydrogenase, sequence (P04406 whole entry): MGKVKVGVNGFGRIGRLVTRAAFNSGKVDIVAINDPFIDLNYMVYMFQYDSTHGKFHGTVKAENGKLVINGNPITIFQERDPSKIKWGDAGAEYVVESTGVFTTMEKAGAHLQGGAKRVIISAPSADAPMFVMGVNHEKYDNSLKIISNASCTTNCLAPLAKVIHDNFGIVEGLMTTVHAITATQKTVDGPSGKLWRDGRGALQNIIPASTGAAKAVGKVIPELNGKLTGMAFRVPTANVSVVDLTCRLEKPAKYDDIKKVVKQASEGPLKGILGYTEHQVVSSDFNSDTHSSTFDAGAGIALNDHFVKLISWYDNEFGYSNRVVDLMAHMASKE

[6] = biological target: T3, Bcl-2-related protein A1 (Mus musculus, UniProt Q07440); assay: small-molecule antagonists of Bfl-1/BH3 interaction – biochemical, TR-FRET, mouse Bfl-1, confirmation (AID 621);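 further: TR-FRET binding of GST-Bfl-1 to FITC-labelled Bid peptide via terbium antibody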
T3 sequence (Q07440 whole entry): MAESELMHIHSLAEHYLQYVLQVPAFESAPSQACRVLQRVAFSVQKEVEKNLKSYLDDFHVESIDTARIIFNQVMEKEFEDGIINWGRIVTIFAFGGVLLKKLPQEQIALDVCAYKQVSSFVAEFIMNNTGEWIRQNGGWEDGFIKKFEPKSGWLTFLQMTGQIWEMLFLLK

[7] = biological target: T3, Bcl-2-related protein A1; assay: Bfl-1 binding inhibitors, SAR follow-up, biochemical, fluorescence polarization (AID 1070)
[8] = biological target: T4, Nucleotide-binding oligomerization domain-containing protein 1 (Homo sapiens, UniProt Q9Y239); assay: SAR analysis of compounds that inhibit NOD1 - Set 3. [Related pubchem assays (depositor defined):AID1566, AID1575, AID1578, AID1849, AID1852, AID2333, AID2335, AID2466]; assay type: functional
T4 sequence (Q9Y239 whole entry): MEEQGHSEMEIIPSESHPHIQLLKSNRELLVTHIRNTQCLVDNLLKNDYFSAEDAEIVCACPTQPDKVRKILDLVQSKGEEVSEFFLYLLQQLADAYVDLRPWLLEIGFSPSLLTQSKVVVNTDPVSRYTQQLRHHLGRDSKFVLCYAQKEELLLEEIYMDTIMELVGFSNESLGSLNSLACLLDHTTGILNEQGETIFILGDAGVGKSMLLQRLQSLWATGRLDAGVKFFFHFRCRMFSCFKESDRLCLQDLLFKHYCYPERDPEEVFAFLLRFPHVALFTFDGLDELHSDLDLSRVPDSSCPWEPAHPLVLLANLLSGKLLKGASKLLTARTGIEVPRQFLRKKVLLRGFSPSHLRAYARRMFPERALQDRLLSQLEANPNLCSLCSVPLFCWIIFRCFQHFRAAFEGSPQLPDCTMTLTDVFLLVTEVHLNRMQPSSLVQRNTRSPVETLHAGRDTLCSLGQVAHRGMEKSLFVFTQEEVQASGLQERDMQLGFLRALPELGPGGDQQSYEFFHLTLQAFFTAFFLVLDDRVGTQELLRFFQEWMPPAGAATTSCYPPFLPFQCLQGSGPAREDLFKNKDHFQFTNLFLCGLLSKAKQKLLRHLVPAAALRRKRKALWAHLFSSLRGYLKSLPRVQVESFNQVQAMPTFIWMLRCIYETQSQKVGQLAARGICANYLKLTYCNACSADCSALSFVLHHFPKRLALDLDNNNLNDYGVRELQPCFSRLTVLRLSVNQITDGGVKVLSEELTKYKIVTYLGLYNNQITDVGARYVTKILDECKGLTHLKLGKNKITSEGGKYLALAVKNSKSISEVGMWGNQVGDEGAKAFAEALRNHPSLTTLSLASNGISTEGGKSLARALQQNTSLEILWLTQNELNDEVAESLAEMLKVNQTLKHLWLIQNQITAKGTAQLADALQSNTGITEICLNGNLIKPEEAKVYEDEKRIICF

[9] = biological target: Tumor necrosis factor (Homo sapiens, UniProt P01375); assay: analog potency on TNFa NF-kB signaling – cell-based, set 3, SAR follow-up (AID 2801); assay type: functional
Tumor necrosis factor, sequence (P01375 whole entry): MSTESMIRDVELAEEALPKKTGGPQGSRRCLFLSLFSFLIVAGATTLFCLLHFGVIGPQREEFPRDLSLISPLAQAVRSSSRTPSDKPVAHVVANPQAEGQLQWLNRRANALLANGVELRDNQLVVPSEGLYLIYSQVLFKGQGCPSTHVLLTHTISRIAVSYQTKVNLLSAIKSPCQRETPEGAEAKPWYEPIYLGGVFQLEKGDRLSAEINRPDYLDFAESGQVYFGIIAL

[10] = system: HEK293; assay: SAR analysis of compounds that are cytotoxic to HEK293 - Set 3. [Related pubchem assays (depositor defined):AID1575, AID1578, AID1848, AID1849, AID2001, AID2333, AID2334, AID2335, AID2337, AID2469]; assay type: functional, cell-based; settings: Homo sapiens
[11] = biological target: Nucleotide-binding oligomerization domain-containing protein 2 (Homo sapiens, UniProt Q9HC29); assay: inhibition of MDP-driven NOD2 NF-kB reporter – cell-based, set 3, SAR follow-up (AID 2799); assay type: functional
Nucleotide-binding oligomerization domain-containing protein 2, sequence (Q9HC29 whole entry, the tested form may be a part): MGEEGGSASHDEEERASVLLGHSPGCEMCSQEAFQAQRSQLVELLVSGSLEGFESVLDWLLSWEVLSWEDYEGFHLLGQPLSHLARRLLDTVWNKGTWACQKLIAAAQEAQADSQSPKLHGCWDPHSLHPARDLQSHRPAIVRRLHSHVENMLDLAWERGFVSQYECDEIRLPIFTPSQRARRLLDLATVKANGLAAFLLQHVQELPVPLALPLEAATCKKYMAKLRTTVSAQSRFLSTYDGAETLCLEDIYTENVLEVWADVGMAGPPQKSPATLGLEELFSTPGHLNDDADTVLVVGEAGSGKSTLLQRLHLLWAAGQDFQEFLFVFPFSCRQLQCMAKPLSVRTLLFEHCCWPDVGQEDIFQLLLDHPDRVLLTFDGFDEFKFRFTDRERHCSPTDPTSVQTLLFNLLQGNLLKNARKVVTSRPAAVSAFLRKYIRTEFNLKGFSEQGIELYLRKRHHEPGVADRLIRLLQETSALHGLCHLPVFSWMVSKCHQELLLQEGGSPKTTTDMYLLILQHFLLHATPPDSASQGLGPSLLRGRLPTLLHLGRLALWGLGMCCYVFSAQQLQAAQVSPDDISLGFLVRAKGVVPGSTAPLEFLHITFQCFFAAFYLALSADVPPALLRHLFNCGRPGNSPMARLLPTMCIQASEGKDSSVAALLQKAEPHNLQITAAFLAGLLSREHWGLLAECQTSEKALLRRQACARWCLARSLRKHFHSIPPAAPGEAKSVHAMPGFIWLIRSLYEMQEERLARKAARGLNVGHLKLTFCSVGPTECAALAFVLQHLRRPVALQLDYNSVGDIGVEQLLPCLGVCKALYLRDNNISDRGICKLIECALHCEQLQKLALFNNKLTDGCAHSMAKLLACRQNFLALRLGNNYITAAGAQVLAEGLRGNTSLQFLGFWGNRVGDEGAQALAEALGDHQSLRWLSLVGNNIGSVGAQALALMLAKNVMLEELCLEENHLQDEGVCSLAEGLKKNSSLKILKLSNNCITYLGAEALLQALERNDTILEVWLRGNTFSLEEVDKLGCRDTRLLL

[12] = system: Vero; assay: Vero 76 cell viability after compound exposure – Vero 76 cells, synthesized analogs, cytotoxicity control for West Nile virus antiviral project, SAR follow-up (AID 2414); assay type: functional; settings: Chlorocebus sabaeus
[13] = system: Vero; assay: Vero cell viability after compound exposure – synthesized analogs, set II, cytotoxicity control for West Nile virus antiviral project, SAR follow-up (AID 2402); assay type: functional; settings: Chlorocebus sabaeus
[14] = A Cell Based Assay for the Identification of Probe candidate Compounds with Anti- Venezuelan Equine Encephalitis virus. [Related pubchem assays: 2409, 2419, 1621, 2238, 2405, 2024, 2065, 2402, 2414, 1635, 1650, 2244 ]; assay type: functional
[15] = biological target: NADPH oxidase 1 (Homo sapiens, UniProt Q9Y5S8); assay type: functional, cell-based;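 further: Cell-based assay with luminescence read-out, IC50 derived from inhibitor dose-response curves; intracellular ROS from endogenous NOX1 in intact HT29 colon cancer cells; potency of inhibitors that lower the ROS luminescence signal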
NADPH oxidase 1, sequence (Q9Y5S8 whole entry): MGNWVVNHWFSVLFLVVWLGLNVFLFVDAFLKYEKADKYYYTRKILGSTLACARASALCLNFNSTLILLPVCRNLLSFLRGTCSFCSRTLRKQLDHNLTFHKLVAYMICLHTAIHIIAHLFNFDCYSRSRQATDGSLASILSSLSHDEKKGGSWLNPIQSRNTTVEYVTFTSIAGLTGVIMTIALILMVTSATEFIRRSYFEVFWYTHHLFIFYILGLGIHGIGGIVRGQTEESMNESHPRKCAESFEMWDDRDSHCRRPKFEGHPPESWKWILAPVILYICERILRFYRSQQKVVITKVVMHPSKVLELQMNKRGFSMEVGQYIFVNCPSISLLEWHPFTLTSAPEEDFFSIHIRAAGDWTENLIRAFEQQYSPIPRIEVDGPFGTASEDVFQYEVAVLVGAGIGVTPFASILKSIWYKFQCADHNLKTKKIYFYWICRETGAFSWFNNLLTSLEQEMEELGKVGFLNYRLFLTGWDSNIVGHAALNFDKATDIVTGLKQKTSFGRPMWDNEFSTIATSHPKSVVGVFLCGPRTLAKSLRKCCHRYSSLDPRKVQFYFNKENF

[16] = mRNA 3' processing disruption, beta-gal signal increase – luminescence, S. cerevisiae SKY197-pL101, dose response (AID 2525); assay type: functional, cell-based
[17] = Luminescence Cell-Based Dose Confirmation HTS to Identify Inhibitors of Polyadenylation.; assay type: functional
[18] = biological target: Protein-tyrosine kinase 2-beta (Homo sapiens, UniProt Q14289);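 further: potency of inhibitors of PYK2 kinase phosphorylation of poly-GT substrate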
Protein-tyrosine kinase 2-beta, sequence (Q14289 whole entry): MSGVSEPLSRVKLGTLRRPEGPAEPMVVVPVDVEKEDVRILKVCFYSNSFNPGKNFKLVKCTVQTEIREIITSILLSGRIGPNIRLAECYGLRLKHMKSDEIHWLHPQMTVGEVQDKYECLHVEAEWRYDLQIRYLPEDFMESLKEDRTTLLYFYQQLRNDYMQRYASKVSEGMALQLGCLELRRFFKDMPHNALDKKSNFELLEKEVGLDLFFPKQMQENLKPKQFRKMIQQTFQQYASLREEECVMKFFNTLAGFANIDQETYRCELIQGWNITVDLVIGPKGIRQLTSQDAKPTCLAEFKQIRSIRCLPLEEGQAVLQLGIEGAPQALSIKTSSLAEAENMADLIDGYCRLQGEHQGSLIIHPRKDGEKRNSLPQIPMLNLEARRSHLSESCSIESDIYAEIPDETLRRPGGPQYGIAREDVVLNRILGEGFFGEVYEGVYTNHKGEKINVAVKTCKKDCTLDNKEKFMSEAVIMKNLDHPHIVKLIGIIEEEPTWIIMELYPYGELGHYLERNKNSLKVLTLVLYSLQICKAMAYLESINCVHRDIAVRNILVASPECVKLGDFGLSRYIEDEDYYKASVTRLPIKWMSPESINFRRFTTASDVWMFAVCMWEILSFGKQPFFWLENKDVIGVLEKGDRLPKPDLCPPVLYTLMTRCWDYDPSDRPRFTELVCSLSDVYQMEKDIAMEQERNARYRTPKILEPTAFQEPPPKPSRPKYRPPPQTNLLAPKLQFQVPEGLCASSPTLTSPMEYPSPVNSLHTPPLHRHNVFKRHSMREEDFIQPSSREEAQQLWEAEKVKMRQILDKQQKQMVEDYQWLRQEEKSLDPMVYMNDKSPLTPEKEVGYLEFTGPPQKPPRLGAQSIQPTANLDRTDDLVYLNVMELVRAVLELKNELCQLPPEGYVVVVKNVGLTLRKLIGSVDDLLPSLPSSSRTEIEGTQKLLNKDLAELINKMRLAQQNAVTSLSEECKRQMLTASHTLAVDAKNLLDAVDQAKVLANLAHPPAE

[19] = biological target: T5, Bcl-2-like protein 10 (Homo sapiens, UniProt Q9HD36); assay: Concentration-response of Bcl-B inhibitors by biochemical FP with TR3 (AID 1243); assay type: functional
T5 sequence (Q9HD36 whole entry): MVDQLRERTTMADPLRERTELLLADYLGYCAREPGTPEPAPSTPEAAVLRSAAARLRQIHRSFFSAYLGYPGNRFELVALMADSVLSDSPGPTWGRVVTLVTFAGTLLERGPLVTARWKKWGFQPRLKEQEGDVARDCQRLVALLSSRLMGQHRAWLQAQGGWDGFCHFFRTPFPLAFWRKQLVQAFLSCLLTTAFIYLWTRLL

[20] = biological target: Lysosomal acid glucosylceramidase (Homo sapiens, UniProt P04062); assay: Dose response cell-based high throughput screening assay to identify enhancers of beta-glucosidase activity. [Related pubchem assays: 784 ]; assay type: functional
Lysosomal acid glucosylceramidase, sequence (P04062 whole entry): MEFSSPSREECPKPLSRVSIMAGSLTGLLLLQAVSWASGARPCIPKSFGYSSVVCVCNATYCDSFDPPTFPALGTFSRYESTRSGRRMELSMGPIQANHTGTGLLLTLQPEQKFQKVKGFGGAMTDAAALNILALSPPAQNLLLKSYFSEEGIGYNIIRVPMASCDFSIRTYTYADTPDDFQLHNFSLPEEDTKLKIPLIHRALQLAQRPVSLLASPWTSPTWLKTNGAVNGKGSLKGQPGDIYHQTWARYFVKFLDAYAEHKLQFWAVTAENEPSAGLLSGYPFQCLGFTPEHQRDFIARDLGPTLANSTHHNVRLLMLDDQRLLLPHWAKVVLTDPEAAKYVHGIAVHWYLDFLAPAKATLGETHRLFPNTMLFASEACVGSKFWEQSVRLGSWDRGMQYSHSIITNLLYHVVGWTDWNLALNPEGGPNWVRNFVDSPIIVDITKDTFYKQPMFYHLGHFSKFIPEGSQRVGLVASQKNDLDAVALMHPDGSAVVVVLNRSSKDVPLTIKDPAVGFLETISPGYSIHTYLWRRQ

[21] = biological target: Photoreceptor-specific nuclear receptor (Homo sapiens, UniProt Q9Y5X4); assay type: functional;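 further: potency for compounds that break the NR2E3 corepressor complex and count as activators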
[22] = biological target: Peroxisome proliferator-activated receptor gamma/Nuclear receptor corepressor 2 (Homo sapiens, UniProt P37231+Q9Y618); assay type: functional
[23] = system: Streptococcus sp. 'group A'; assay: Streptococcus pyogenes SK(-)GAS viability under kanamycin – luminescence, BacTiterGlo, confirmation, counter-screen for streptokinase expression inhibitor project, dose response (AID 1900); assay type: functional, organism-based
[24] = cells; assay type: functional, cell-based
[25] = Luminescence-based counterscreen assay for KLF5 inhibitors: dose response cell-based high throughput screening assay to identify cytotoxic compounds using the IEC-6 intestinal epithelial cell line. [Related pubchem assays: 1700 (Primary screen.), 1834 (Confirmation screen.), 1858 (Summary AID.), 1905 (Counterscreen.)]; assay type: functional
[26] = cells; assay type: functional, cell-based; remark: listed apart in the source
[27] = system: Streptococcus; assay: GAS UMAA2166 growth inhibition – luminescence, BacTiterGlo, counter-screen for streptokinase expression inhibitor project, dose response (AID 1915); assay type: functional, organism-based;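 further: potency for reduction of bacterial viability or growth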
[28] = biological target: Nonstructural protein 1 (Influenza A virus, UniProt Q194T2); assay type: functional, Influenza A virus (A/California/07/2009(H1N1))
Nonstructural protein 1, sequence (Q194T2 whole entry): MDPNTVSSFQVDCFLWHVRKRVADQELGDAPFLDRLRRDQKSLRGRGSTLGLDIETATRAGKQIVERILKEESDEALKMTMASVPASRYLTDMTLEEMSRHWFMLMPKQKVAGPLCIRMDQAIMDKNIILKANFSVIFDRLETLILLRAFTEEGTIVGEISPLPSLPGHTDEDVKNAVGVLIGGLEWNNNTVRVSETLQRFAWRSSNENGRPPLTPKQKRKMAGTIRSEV

[29] = biological target: T6, Alkaline phosphatase, tissue-nonspecific isozyme (Homo sapiens, UniProt P05186)
T6 sequence (P05186 whole entry): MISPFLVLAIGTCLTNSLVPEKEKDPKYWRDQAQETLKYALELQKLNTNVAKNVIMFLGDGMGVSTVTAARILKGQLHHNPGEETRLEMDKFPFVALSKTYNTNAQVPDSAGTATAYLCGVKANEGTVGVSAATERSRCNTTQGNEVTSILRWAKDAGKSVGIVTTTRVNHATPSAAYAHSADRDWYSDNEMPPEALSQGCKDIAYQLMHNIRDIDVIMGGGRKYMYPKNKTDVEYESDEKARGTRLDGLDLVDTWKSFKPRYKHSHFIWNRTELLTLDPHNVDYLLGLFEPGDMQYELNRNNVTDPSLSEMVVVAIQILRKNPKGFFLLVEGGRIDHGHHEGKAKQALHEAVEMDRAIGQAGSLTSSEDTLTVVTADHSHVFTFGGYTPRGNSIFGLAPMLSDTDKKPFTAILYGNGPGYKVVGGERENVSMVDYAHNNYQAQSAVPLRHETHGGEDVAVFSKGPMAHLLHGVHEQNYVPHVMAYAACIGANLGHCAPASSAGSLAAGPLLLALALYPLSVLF

Neuropeptides B/W receptor type 1, sequence (P48145 whole entry): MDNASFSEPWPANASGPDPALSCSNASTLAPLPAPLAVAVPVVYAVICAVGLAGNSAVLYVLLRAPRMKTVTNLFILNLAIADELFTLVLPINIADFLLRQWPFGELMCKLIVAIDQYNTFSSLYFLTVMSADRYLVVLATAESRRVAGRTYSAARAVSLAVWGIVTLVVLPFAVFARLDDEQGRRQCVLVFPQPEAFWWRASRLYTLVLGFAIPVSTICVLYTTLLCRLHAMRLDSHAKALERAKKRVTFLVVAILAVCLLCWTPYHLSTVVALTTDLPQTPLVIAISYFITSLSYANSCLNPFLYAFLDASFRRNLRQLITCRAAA

Which IC50 [1] does the source give for `CC(NC(=O)Cn1c(NCCO)nc2ccccc21)C1CC2CCC1C2` (centres undefined) here?
Its IC50 is > 14.6 µM (not active).

What about the IC50 [2] of the same compound?
Its IC50 is > 35 µM (not active).

What about the IC50 [3] of the same compound?
Its IC50 is > 43.8 µM (not active).

What about the IC50 [4] of the same compound?
Its IC50 is > 35 µM (not active).

With `Nc1cc(-c2ccc(Cl)cc2)nn1S(=O)(=O)c1c(F)c(F)c(F)c(F)c1F` as the compound, how does the IC50 [5] read?
Its IC50 is > 100 µM (not active).

And the IC50 [6]?
The IC50 was > 100 µM (not active).

And the IC50 [7]?
The IC50 was > 100 µM (not active).

And the IC50 [8]?
The IC50 was > 20 µM (inactive).

What about the IC50 [9] of the same compound?
The IC50 was > 20 µM (inactive).

What about the IC50 [10] of the same compound?
Its IC50 is > 20 µM (inactive).

And the IC50 [11]?
The IC50 was > 20 µM (inactive).

Which CC50 [12] does the source give for `Cc1ccc2nc(SCC(=O)Nc3ccc4c(c3)CCC4)n(-c3ccccc3)c(=O)c2c1` here?
Its CC50 is 130 µM (active).

What about the CC50 [13] of the same compound?
The CC50 was > 200 µM (active).

And the IC50 [14]?
Its IC50 is 7.73 µM (active).

Which IC50 [15] does the source give for `c1ccc(-c2nc(-c3ccccn3)c(-c3ccccn3)[nH]2)cc1` here?
The IC50 was > 17 µM (not active).

For `O=C(COC(=O)Cc1ccc(S(=O)(=O)N2CCOCC2)s1)NCc1ccc(Cl)cc1`, which EC50 [16] is on record?
Its EC50 is > 500 µM (not active).

What about the EC50 [17] of the same compound?
The EC50 was 99.6 µM (active).

For `O=C(O)c1ccccc1OCCOCCOc1ccccc1C(=O)O`, which IC50 [18] is on record?
The IC50 was 18.2 µM (not active).

For `O=C(COc1ccc(Cl)cc1Cl)Nc1nnc(-c2ccco2)s1`, which EC50 [19] is on record?
The EC50 was 17 µM (active).

For `NC(=NO)c1nc(N2CCCCC2)nc(N2CCCCC2)n1`, which EC50 [20] is on record?
The EC50 was > 50 µM (not active).

Which IC50 [21] does the source give for `Cc1ccccc1CNc1ncnc2cc(Cl)ccc12` here?
The IC50 was 3.84 µM (active).

And the IC50 [22]?
Its IC50 is 2.38 µM (active).

With `O=C(N/N=C/c1cc(O)ccc1Br)c1cccnc1` as the compound, how does the EC50 [23] read?
The EC50 was 1.85 µM (active).

What about the EC50 [24] of the same compound?
Its EC50 is 165 µM (active).

And the IC50 [25]?
The IC50 was 4.8 µM (active).

What about the EC50 [26] of the same compound?
The EC50 was > 350 µM (not active).

And the EC50 [27]?
The EC50 was 4.86 µM (active).

And the IC50 [28]?
The IC50 was 6.35 µM (active).

Which EC50 [29] does the source give for `Cn1c(=O)c2c(nc(N/N=C/c3ccco3)n2C)n(C)c1=O` here?
Its EC50 is 88.9 µM (not active).
